Results from ChEMBL document CHEMBL3259607, “Hot spot-based design of small-molecule inhibitors for protein-protein interactions” (Bioorg Med Chem Lett, 2014).

How the values were obtained:
[1] = biological target: T1, Interferon alpha/beta receptor 1 (Homo sapiens, UniProt P17181); test: Binding affinity to IFNAR (unknown origin) assessed as inhibition of interaction with IFN-alpha
T1 sequence (P17181 whole entry): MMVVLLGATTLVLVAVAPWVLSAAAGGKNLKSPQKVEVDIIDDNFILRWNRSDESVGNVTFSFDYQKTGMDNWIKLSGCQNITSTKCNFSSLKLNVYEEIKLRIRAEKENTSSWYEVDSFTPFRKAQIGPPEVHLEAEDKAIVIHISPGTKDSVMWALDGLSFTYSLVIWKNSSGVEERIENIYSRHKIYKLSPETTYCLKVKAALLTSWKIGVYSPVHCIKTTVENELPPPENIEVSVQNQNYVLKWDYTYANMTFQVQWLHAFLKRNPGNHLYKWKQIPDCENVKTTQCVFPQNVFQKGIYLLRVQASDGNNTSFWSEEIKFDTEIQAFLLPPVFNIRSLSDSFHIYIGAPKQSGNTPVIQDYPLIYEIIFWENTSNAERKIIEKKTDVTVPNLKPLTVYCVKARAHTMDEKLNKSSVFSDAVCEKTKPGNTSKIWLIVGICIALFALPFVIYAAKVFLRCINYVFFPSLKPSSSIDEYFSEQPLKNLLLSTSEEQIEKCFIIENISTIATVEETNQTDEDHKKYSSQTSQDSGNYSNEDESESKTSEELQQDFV

[2] = biological target: Von Hippel-Lindau disease tumor suppressor/Elongin B/Elongin C (Homo sapiens, UniProt P40337); test: Displacement of FAM-DEALAHyp-YIPD from VHL/elongins-B/elonginC (unknown origin) by fluorescence polarization assay; assay type: protein-complex assay
TCF4/beta-catenin = TCF4/beta-catenin (Homo sapiens, UniProt P35222+Q9NQB0); test: Inhibition of beta-catenin/T cell factor (unknown origin); assay type: protein-complex assay
Chain of TCF4/beta-catenin (P35222 whole entry): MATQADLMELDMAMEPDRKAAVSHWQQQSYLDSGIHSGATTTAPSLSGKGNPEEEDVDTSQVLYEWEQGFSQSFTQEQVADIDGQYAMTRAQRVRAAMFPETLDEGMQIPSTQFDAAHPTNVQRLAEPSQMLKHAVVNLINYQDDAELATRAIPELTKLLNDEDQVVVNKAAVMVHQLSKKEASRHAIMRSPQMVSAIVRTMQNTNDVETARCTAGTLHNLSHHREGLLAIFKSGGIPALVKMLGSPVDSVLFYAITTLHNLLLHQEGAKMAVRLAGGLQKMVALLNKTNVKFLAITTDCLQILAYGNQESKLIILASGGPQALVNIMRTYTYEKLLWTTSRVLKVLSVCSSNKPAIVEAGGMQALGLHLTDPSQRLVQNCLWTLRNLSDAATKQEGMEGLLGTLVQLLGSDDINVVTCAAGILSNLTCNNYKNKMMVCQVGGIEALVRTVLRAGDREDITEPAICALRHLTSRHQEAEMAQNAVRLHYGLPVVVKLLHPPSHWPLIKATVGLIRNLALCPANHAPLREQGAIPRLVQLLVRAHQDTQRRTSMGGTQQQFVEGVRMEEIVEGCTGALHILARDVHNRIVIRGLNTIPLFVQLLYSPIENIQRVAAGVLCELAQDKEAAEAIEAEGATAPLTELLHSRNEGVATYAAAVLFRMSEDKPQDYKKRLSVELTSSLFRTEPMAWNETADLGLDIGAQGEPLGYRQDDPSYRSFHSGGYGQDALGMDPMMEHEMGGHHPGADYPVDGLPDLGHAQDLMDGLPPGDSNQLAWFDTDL
Chain of TCF4/beta-catenin (Q9NQB0 whole entry): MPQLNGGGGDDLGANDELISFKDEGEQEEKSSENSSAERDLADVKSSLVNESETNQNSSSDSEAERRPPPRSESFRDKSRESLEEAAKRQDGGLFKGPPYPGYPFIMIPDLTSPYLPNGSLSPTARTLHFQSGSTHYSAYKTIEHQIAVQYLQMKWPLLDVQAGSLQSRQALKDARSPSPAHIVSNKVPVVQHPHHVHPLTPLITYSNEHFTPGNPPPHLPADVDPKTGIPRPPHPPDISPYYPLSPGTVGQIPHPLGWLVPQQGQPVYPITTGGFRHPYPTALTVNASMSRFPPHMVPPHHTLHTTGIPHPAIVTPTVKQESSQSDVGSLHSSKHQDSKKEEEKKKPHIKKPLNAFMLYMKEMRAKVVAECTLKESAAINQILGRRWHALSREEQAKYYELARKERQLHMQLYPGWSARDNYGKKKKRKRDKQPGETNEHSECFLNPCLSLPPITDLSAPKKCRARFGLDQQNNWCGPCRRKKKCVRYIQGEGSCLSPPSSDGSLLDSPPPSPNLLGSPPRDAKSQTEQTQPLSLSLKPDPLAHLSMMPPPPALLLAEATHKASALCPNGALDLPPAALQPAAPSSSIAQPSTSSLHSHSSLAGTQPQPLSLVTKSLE

Chain of Von Hippel-Lindau disease tumor suppressor/Elongin B/Elongin C (P40337 whole entry, looked up): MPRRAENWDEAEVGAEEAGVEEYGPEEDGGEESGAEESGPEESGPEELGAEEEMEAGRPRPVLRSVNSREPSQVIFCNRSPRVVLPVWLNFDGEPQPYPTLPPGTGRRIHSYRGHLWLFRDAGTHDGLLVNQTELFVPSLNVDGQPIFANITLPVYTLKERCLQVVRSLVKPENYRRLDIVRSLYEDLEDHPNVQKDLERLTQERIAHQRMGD

A Kd [1] of 4000 nM was found for `CNCc1ccccc1Sc1cccc2ccccc12` in this work.

An IC50 [2] of 900 nM was found for `Cc1ncsc1-c1ccc(CNC(=O)[C@@H]2C[C@@H](O)CN2C(=O)c2cccc(N)c2C)cc1` in this work.

A Ki (TCF4/beta-catenin) of 1350 nM was found for `Oc1noc2cc(CCc3nn[nH]n3)ccc12` in this work.
